Experiments:
[1] = system: patients with chronic constipation; conditions: two trials versus placebo; cited from earlier work
[2] = primarily as inactive metabolites; cited from earlier work
[3] = system: patients with functional constipation; test: Randomized, dose escalation, placebo controlled clinical study; type: in vivo, human; conditions: daily diaries, dose escalation phase (25, 50, 100 mg once daily)
From the text: A randomized, dose escalation, placebo controlled study is designed to assess the efficacy of the administered formulation in 60 to 120 patients with functional constipation, defined using the Rome II criteria (modified), i.e., at least […] of two or more of the following symptoms: • i. Straining in >25% of defecations; • ii. Lumpy or hard stools in >25% of defecations; • iii. Sensation of incomplete evacuation in >25% of defecations; • iv. Sensation of anorectal obstruction/blockage in >25% of defecations; • v. Manual maneuvers to facilitate >25%, of defecations (e.g. digital evacuation, support of pelvic floor); and/or • vi. <3 evacuations per week. In addition, loose stools are not present, and there are insufficient criteria for a diagnosis of IBS. Moreover, these patients have no evidence of medical disorders that may cause constipation. Patients are symptomatic on entry in the randomization phase of the study, i.e., in the 8-14 day run-in period, on at least 8 days, which need not be consecutive, patients have lumpy or hard stools in >25% of defecations.
Patients are randomized to one of three groups:
Patients randomized to receive treatments a) or b) will receive 25 mg once daily for the first four weeks, 50 mg once daily for the following four weeks and 100 mg once daily for a further four weeks, providing the previous dose was well tolerated. […]

[4] = system: women patients with IBS-C; conditions: 6 mg twice daily; cited from earlier work

For `OC[C@H]1O[C@@H](O[C@@H]2[C@@H](CO)OC(O)(CO)[C@H]2O)[C@H](O)[C@@H](O)[C@H]1O` (mixture of isomers) [lactulose], the “stool frequency and consistency” value [1] is given as “more effective than placebo”.
For `C[C@H]1O[C@H](O[C@H]2[C@H](O)[C@@H](O)[C@@H](O[C@H]3[C@H](O)[C@@H](O)C(O)O[C@@H]3CO)O[C@@H]2CO)[C@H](O)[C@@H](O)[C@@H]1N[C@H]1C=C(CO)[C@@H](O)[C@H](O)[C@H]1O` (stereo partly shown) [acarbose], the oral dose absorbed [2] is given as “About 35%”.
With `CN(C)C(=N)N=C(N)N` [metformin] the “patient's global impression: answer 'yes' to "do you feel better now after treatment"” value [3] was “at least 50 % of the time”.
For `CCCCCNC(=N)N/N=C/c1c[nH]c2ccc(OC)cc12.O=C(O)/C=C\C(=O)O` [tegaserod, 3-(5-methoxy-1H-indol-3-ylmethylene)-N-pentylcarbazimidamide hydrogen maleate], the “global and individual symptoms” value [4] is listed as “effectively improves global and individual symptoms”.
